Assay results reported in patent publication US20230085307A1, “PYRIDAZINONE COMPOUND AND HERBICIDE” (NISSAN CHEMICAL CORPORATION, priority 2019, published 2023).

Legend:
barnyard grass [1] = test: Test Example 3: herbicidal effect by foliage application, Wagner pot (Table 18, symbol H); assay type: in vivo, barnyard grass (Echinochloa crus-galli); conditions: 320 g/ha
Procedure, shortened: (§1)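 Plants were sown in alluvial soil held under 0.1–0.5 cm standing water and grown 14 days in a greenhouse at 25–30 °C. An emulsifiable formulation, water-diluted to the set dose, was then sprayed onto the foliage, and effects were scored three weeks later using previously defined criteria.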

Chinese sprangletop = test: Test Example 3: herbicidal effect by foliage application, Wagner pot (Table 18, symbol D); assay type: in vivo, chinese sprangletop (Leptochloa chinensis); conditions: 320 g/ha
Procedure, shortened: as §1

rice flat sedge = test: Test Example 3: herbicidal effect by foliage application, Wagner pot (Table 18, symbol E); assay type: in vivo, rice flat sedge (Cyperus iria); conditions: 320 g/ha
Procedure, shortened: as §1

southern crabgrass [2] = test: Test Example 4: herbicidal effect by soil treatment (Table 19, symbol F); assay type: in vivo, southern crabgrass (Digitaria ciliaris); conditions: amount of applied herbicide 320 g/ha
Procedure, shortened: (§2)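 Pre-emergence style soil spray: seeds under ~1.5 cm sterilized diluvial soil received a uniform coat of emulsion diluted to the predetermined herbicide amount. Greenhouse 25–30° C; readout at week three on previously defined criteria.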

green foxtail [3] = test: Test Example 4: herbicidal effect by soil treatment (Table 19, symbol G); assay type: in vivo, green foxtail (Setaria viridis); conditions: amount of applied herbicide 320 g/ha
Procedure, shortened: as §2

barnyard grass [4] = test: Test Example 4: herbicidal effect by soil treatment (Table 19, symbol H); assay type: in vivo, barnyard grass (Echinochloa crus-galli); conditions: amount of applied herbicide 320 g/ha
Procedure, shortened: as §2

wild oat [5] = test: Test Example 4: herbicidal effect by soil treatment (Table 19, symbol I); assay type: in vivo, wild oat (Avena fatua); conditions: amount of applied herbicide 320 g/ha
Procedure, shortened: as §2

blackgrass [6] = test: Test Example 4: herbicidal effect by soil treatment (Table 19, symbol J); assay type: in vivo, blackgrass (Alopecurus myosuroides); conditions: amount of applied herbicide 320 g/ha
Procedure, shortened: as §2

Italian ryegrass [7] = test: Test Example 4: herbicidal effect by soil treatment (Table 19, symbol K); assay type: in vivo, Italian ryegrass (Lolium multiflorum); conditions: amount of applied herbicide 320 g/ha
Procedure, shortened: as §2

windgrass [8] = test: Test Example 4: herbicidal effect by soil treatment (Table 19, symbol L); assay type: in vivo, windgrass (Apera spica-venti); conditions: amount of applied herbicide 320 g/ha
Procedure, shortened: as §2

velvetleaf [9] = test: Test Example 4: herbicidal effect by soil treatment (Table 19, symbol M); assay type: in vivo, velvetleaf (Abutilon theophrasti); conditions: amount of applied herbicide 320 g/ha
Procedure, shortened: as §2

redroot pigweed [10] = test: Test Example 4: herbicidal effect by soil treatment (Table 19, symbol N); assay type: in vivo, redroot pigweed (Amaranthus retroflexus); conditions: amount of applied herbicide 320 g/ha
Procedure, shortened: as §2

lambsquarters [11] = test: Test Example 4: herbicidal effect by soil treatment (Table 19, symbol O); assay type: in vivo, lambsquarters (Chenopodium album); conditions: amount of applied herbicide 320 g/ha
Procedure, shortened: as §2

chickweed [12] = test: Test Example 4: herbicidal effect by soil treatment (Table 19, symbol P); assay type: in vivo, common chickweed (Stellaria media); conditions: amount of applied herbicide 320 g/ha
Procedure, shortened: as §2

persian speedwell [13] = test: Test Example 4: herbicidal effect by soil treatment (Table 19, symbol R); assay type: in vivo, Persian speedwell (Veronica persica); conditions: amount of applied herbicide 320 g/ha
Procedure, shortened: as §2

southern crabgrass [14] = test: Test Example 5: herbicidal effect by foliage application, plastic box (Table 20, symbol F); assay type: in vivo, southern crabgrass (Digitaria ciliaris); conditions: amount of applied herbicide 320 g/ha; foliage application after 14-day growth; evaluated three weeks after application
Procedure, shortened: (§3)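 Plants were sown into sterilized diluvial soil under about 1.5 cm cover and kept in a greenhouse at 25° C. to 30° C. Fourteen days on, foliage received an even spray of the diluted emulsion. Herbicidal or crop effect was judged three weeks afterwards.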

green foxtail [15] = test: Test Example 5: herbicidal effect by foliage application, plastic box (Table 20, symbol G); assay type: in vivo, green foxtail (Setaria viridis); conditions: amount of applied herbicide 320 g/ha; foliage application after 14-day growth; evaluated three weeks after application
Procedure, shortened: as §3

barnyard grass [16] = test: Test Example 5: herbicidal effect by foliage application, plastic box (Table 20, symbol H); assay type: in vivo, barnyard grass (Echinochloa crus-galli); conditions: amount of applied herbicide 320 g/ha; foliage application after 14-day growth; evaluated three weeks after application
Procedure, shortened: as §3

wild oat [17] = test: Test Example 5: herbicidal effect by foliage application, plastic box (Table 20, symbol I); assay type: in vivo, wild oat (Avena fatua); conditions: amount of applied herbicide 320 g/ha; foliage application after 14-day growth; evaluated three weeks after application
Procedure, shortened: as §3

blackgrass [18] = test: Test Example 5: herbicidal effect by foliage application, plastic box (Table 20, symbol J); assay type: in vivo, blackgrass (Alopecurus myosuroides); conditions: amount of applied herbicide 320 g/ha; foliage application after 14-day growth; evaluated three weeks after application
Procedure, shortened: as §3

Italian ryegrass [19] = test: Test Example 5: herbicidal effect by foliage application, plastic box (Table 20, symbol K); assay type: in vivo, Italian ryegrass (Lolium multiflorum); conditions: amount of applied herbicide 320 g/ha; foliage application after 14-day growth; evaluated three weeks after application
Procedure, shortened: as §3

windgrass [20] = test: Test Example 5: herbicidal effect by foliage application, plastic box (Table 20, symbol L); assay type: in vivo, windgrass (Apera spica-venti); conditions: amount of applied herbicide 320 g/ha; foliage application after 14-day growth; evaluated three weeks after application
Procedure, shortened: as §3

velvetleaf [21] = test: Test Example 5: herbicidal effect by foliage application, plastic box (Table 20, symbol M); assay type: in vivo, velvetleaf (Abutilon theophrasti); conditions: amount of applied herbicide 320 g/ha; foliage application after 14-day growth; evaluated three weeks after application
Procedure, shortened: as §3

redroot pigweed [22] = test: Test Example 5: herbicidal effect by foliage application, plastic box (Table 20, symbol N); assay type: in vivo, redroot pigweed (Amaranthus retroflexus); conditions: amount of applied herbicide 320 g/ha; foliage application after 14-day growth; evaluated three weeks after application
Procedure, shortened: as §3

lambsquarters [23] = test: Test Example 5: herbicidal effect by foliage application, plastic box (Table 20, symbol O); assay type: in vivo, lambsquarters (Chenopodium album); conditions: amount of applied herbicide 320 g/ha; foliage application after 14-day growth; evaluated three weeks after application
Procedure, shortened: as §3

chickweed [24] = test: Test Example 5: herbicidal effect by foliage application, plastic box (Table 20, symbol P); assay type: in vivo, common chickweed (Stellaria media); conditions: amount of applied herbicide 320 g/ha; foliage application after 14-day growth; evaluated three weeks after application
Procedure, shortened: as §3

persian speedwell [25] = test: Test Example 5: herbicidal effect by foliage application, plastic box (Table 20, symbol R); assay type: in vivo, Persian speedwell (Veronica persica); conditions: amount of applied herbicide 320 g/ha; foliage application after 14-day growth; evaluated three weeks after application
Procedure, shortened: as §3

## CCCC(=O)Oc1c(C)nn(C)c(=O)c1-c1c(-c2ccccc2OC)sc2cc(Cl)c(Cl)cc12 [5-042]
Barnyard grass [1]
  herbicidal effect on barnyard grass (H): 5 (Herbicidal rate of 90% or more (almost completely withered))
Chinese sprangletop
  herbicidal effect on Chinese sprangletop (D): 2 (Herbicidal rate of 20% or more and less than 40%)
Rice flat sedge
  herbicidal effect on rice flat sedge (E): 4 (Herbicidal rate of 70% or more and less than 90%)
Southern crabgrass [2]
  F: southern crabgrass, herbicidal effect grade: 0 (Herbicidal rate of 5% or less (almost no effect))
Green foxtail [3]
  G: green foxtail, herbicidal effect grade: 0 (Herbicidal rate of 5% or less (almost no effect))
Barnyard grass [4]
  H: barnyard grass, herbicidal effect grade: 0 (Herbicidal rate of 5% or less (almost no effect))
Wild oat [5]
  I: wild oat, herbicidal effect grade: 0 (Herbicidal rate of 5% or less (almost no effect))
Blackgrass [6]
  J: blackgrass, herbicidal effect grade: 0 (Herbicidal rate of 5% or less (almost no effect))
Italian ryegrass [7]
  K: Italian ryegrass, herbicidal effect grade: 0 (Herbicidal rate of 5% or less (almost no effect))
Windgrass [8]
  L: windgrass, herbicidal effect grade: 0 (Herbicidal rate of 5% or less (almost no effect))
Velvetleaf [9]
  M: velvetleaf, herbicidal effect grade: 0 (Herbicidal rate of 5% or less (almost no effect))
Redroot pigweed [10]
  N: redroot pigweed, herbicidal effect grade: 3 (Herbicidal rate of 40% or more and less than 70%)
Lambsquarters [11]
  O: lambsquarters, herbicidal effect grade: 1 (Herbicidal rate of 5% or more and less than 20%)
Chickweed [12]
  P: chickweed, herbicidal effect grade: 3 (Herbicidal rate of 40% or more and less than 70%)
Persian speedwell [13]
  R: persian speedwell, herbicidal effect grade: 0 (Herbicidal rate of 5% or less (almost no effect))
Southern crabgrass [14]
  Herbicidal effect by foliage application, F: southern crabgrass: 0 (Herbicidal rate of 5% or less (almost no effect))
Green foxtail [15]
  Herbicidal effect by foliage application, G: green foxtail: 4 (Herbicidal rate of 70% or more and less than 90%)
Barnyard grass [16]
  Herbicidal effect by foliage application, H: barnyard grass: 4 (Herbicidal rate of 70% or more and less than 90%)
Wild oat [17]
  Herbicidal effect by foliage application, I: wild oat: 0 (Herbicidal rate of 5% or less (almost no effect))
Blackgrass [18]
  Herbicidal effect by foliage application, J: blackgrass: 0 (Herbicidal rate of 5% or less (almost no effect))
Italian ryegrass [19]
  Herbicidal effect by foliage application, K: Italian ryegrass: 0 (Herbicidal rate of 5% or less (almost no effect))
Windgrass [20]
  Herbicidal effect by foliage application, L: windgrass: 0 (Herbicidal rate of 5% or less (almost no effect))
Velvetleaf [21]
  Herbicidal effect by foliage application, M: velvetleaf: 5 (Herbicidal rate of 90% or more (almost completely withered))
Redroot pigweed [22]
  Herbicidal effect by foliage application, N: redroot pigweed: 4 (Herbicidal rate of 70% or more and less than 90%)
Lambsquarters [23]
  Herbicidal effect by foliage application, O: lambsquarters: 5 (Herbicidal rate of 90% or more (almost completely withered))
Chickweed [24]
  Herbicidal effect by foliage application, P: chickweed: 4 (Herbicidal rate of 70% or more and less than 90%)
Persian speedwell [25]
  Herbicidal effect by foliage application, R: persian speedwell: 4 (Herbicidal rate of 70% or more and less than 90%)
